From patent publication US5814627A, “3, 5-disubstituted and 3, 4, 5-trisubstituted 2-isoxazolines and isoxazoles, process for their preparation and their use as pharmaceuticals” (Hoechst Aktienegesellschaft, priority 1994, dated 1998)

Tested on: IL-1β release from mononuclear cells
Experiment: Test 4: cytokine release from LPS-stimulated mononuclear cells, IL-1β
Type: cell-based
Details: Homo sapiens, 10 μM, read-out: Test 4 residual activity (IL-1β release), percent of control
Description: Test 4. Stimulation of the cytokine release
Isolation of mononuclear cells from human blood
10 ml of human blood, stabilized with 1 ml of 3.8% sodium citrate solution, were diluted with 10 ml of PM16 (Serva, Heidelberg) and underlaid with 15 ml of Lymphoprep (Dr. Molter GmbH, Heidelberg). The samples were centrifuged, at room temperature for 40 minutes, at 400×g (1600 rpm, Minifuge 2, Heraeus, Osterode). The mononuclear cells are visible as a white ring at the Lymphoprep/plasma interface. This ring was carefully removed with a syringe, diluted with an equal volume of PM16, and centrifuged for 10 minutes at 400×g. The sediment was washed with approximately 10 ml of RPMI1640 (+300 mg/l L-glutamine, Gibco, Eggenstein) (Wallis, 1986). After the cells had been resuspended in approximately 1 ml of RPMI1640 (+300 mg/l L-glutamine+25 mM HEPES+100 μg/ml streptomycin+100 μg/ml penicillin), the cell density was determined using a Coulter Counter JT (Coulter Diagnostics) and adjusted to 5*10^6 /ml. Typically, the cells are composed of 90% lymphocytes and 10% monocytes.
230 μl of mononuclear cells were incubated, at 37° C.; 5% CO2 for 20-22 hours (5 hours in the case of IL-6), with 10 μl of test substance (10 μM in DMSO/water, 1/10) and 10 μl of lipopolysaccharide (LPS; 500 μg dissolved in 1 ml of DMSO and diluted 1/10 with water prior to beginning the test; from Salmonella abortus equi, Sigma, Deisenhofen). The samples were cooled down to 0° C. in an ice bath and centrifuged in a Sigma centrifuge (2 minutes; 2000 rpm). Aliquots of the supernatant are measured with an ELISA (Biermann, Bad Nauheim). The abbreviation IL stands for interleukin and TNF for tumor necrosis factor alpha.
The values in the table show the concentration of the test substance which was employed in μM and, besides this, the residual activity measured in percent based on the control, which was set to be 100%. The interleukin is additionally indicated in test 4.

`CC(C)(C)c1cc(C2CC(CCC(=O)O)=NO2)cc(C(C)(C)C)c1O` (stereo not shown) [Example 63, 5-(4-Hydroxy-3,5-di-tert-butylphenyl)-2-isoxazolin-3-ylpropionic acid] was tested, and the activity at 10 µM was 77%.
